Experimental data as given in article PMC3890372 (Nature communications, 2013).

Assays:
[1] = target: T1, Drosophila Smo CRD (Smoothened) (Drosophila melanogaster, UniProt P91682); assay: Bio-Layer Interferometry; type: binding
T1 sequence (P91682 85-202): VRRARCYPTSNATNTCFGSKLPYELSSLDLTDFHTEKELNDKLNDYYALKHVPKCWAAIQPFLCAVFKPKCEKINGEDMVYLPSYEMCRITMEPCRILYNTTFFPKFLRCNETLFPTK

[2] = target: T2, human Smo CRD (Smoothened) (Homo sapiens, UniProt Q99835); assay: Bio-Layer Interferometry; type: binding
T2 sequence (Q99835 65-177): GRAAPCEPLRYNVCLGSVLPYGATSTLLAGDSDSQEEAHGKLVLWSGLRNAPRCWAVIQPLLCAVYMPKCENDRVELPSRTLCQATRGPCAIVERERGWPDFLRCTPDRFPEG

Kd [1]: 120 ± 98 µM
Kd [2]: 52 ± 16 µM
Structure (SMILES): CCCC1O[C@@H]2C[C@H]3[C@@H]4CCC5=CC(=O)C=C[C@]5(C)[C@H]4[C@@H](O)C[C@]3(C)[C@]2(C(=O)CO)O1 (some centres unmarked) [Bud, budesonide]
